The text below walks through data of patent publication US12097190B2, “Therapeutic use of levorotatory β-lactams in hematopoiesis, immuno-oncology therapy, and regulation of lipoprotein and apolipoprotein levels” (Alpha-1 Biologics, LLC, priority 2017, dated 2024).

The test system of test [1] is HIV permissive (plus) clone 10. Put plainly: Adherence assay on coverslips, U937 plus clone 10. Type of test: cell-based, human. The protocol:
(§1) To coverslips prepared with chemoattractants as described above, 10^6 cells in 90 μl HBSS were mixed to uniformity, and incubated for 30 min in humidified 5% CO2 at 37° C. without dehydration. To detect interacting effects of stimulants, cells were delivered in an 80 μl volume to coverslips previously prepared with 10 μl of one stimulant, mixed to uniformity, and incubated for 15 min at 37° C. Subsequently, an additional stimulant was delivered in a 10 μl volume to each coverslip, mixed with pre-incubated cells to uniformity, and incubated for 30-60 min at 37° C. […] Slides were examined by epi-illumination UV microscopy on a Zeiss Axioskop Means and standard deviations were determined by counting adherent cells in at least three fields/coverslip.
(§2) Means and standard deviations represent the difference between stimulated and unstimulated adherence. […] Adherence was optimized for each chemoattractant and adherence induced by each chemoattractant was enumerated in more than three separate experiments.

The subject of test [2] is HIV non-permissive (minus) clone 17. Put plainly: Adherence assay on coverslips, U937 minus clone 17. Type of test: cell-based, human. The protocol: as §1, §2
The test system of a further test is CD4+ T lymphocytes. The note with it: cited from earlier work.
Test [3] relates to Human acute myeloid leukemia cells (AML). To be noted: cited from earlier work.
In test [4] the test system is transplanted human stem cells, transplanted AML cells. The note with it: mouse model; cited from earlier work.

With Ser-Phe-Leu-Leu-Arg-Asn [SFLLRN], the stimulation of adherence result in test [1] and in test [2] was “Neither subclone was influenced” each time.
For the substance “α1PI: abundant proteinase inhibitor alpha-1 proteinase inhibitor (α1PI, α1 antitrypsin)”, the “CD4+ counts” value with CD4+ T lymphocytes (HIV-1-infected patients with acquired and uninfected patients with inherited α1PI deficiency) is reported as “caused an increase in CD4+ counts”. Also, the LDL in subjects entry in the test on CD4+ T lymphocytes (α1PI treatment) is “produced decreased LDL”. In addition, the SDF-1-induced pseudopodia formation result in test [3] (AML cells) is “prevented”. The SDF-1 dependent migration entry in test [3] (pre-incubation of AML cells) was “significantly reduced”. Further, the “homing of stem cells to and egress of AML cells from bone marrow” value in test [4] is “inhibited homing of transplanted human stem cells to bone marrow and egress of transplanted AML cells from bone marrow”.
